# Source: the supplement of paper PMC5770543
# ± gives the standard deviation.
# Experiments:
# [1] = tested on: Plasmodium falciparum 3D7; assay: EC50 growth inhibition (60 h, SYBR Green); conditions: stage: ring-stage start
# [2] = tested on: Toxoplasma gondii RH tachyzoites; assay: % growth inhibition vs DMSO (48 h luciferase); higher = more inhibition; conditions: 10 µM
# [3] = molecular target: Toxoplasma gondii RH tachyzoites; assay: EC50 growth inhibition (48 h luciferase)
# [4] = tested on: Plasmodium falciparum 3D7; assay: % inhibition of schizont-to-ring transition vs DMSO; higher = more inhibition
# Summary of the method: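 Schizont-to-ring transition inhibition compares new ring formation with that in vehicle controls. Synchronised P. falciparum schizonts (about 40–42 hours post-invasion, 1% parasitemia, 2.5% hematocrit, AlbuMAX-supplemented RPMI) were exposed to 1, 3 or 10 µM compound, after which rings were counted by Hoechst 33342 flow cytometry across three experiments.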
# 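Wherever % growth inhibition vs DMSO (48 h luciferase) is given: tested in triplicate wells of 96-well plates on confluent HFF monolayers, with 1% DMSO wells as negative control in four replicates.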
Structure (SMILES),EC50 growth inhibition [1] [nM],% growth inhibition [2] [%],EC50 growth inhibition [3] [nM],% inhibition of schizont-to-ring transition ([4]; 1 µM) [%],% inhibition of schizont-to-ring transition ([4]; 3 µM) [%],% inhibition of schizont-to-ring transition ([4]; 10 µM) [%]
CSc1ccccc1C(=O)Nc1nc(-c2ccccn2)cs1,1710,99.44 ± 0.19,849,23,26.9,40.1
OC(CNCC1CCCO1)Cn1c2ccc(Cl)cc2c2cc(Cl)ccc21 (configuration not stated),394,99.23 ± 0.57,4460,5.57,44.1,65.7
Clc1cc(Br)ccc1-c1ccc(CNCC2CCNCC2)o1,763,99.53 ± 0.77,207,46,50.9,74.4
CCCOCc1cc(CN2CCN(c3cccc(Cl)c3)CC2)c(O)c2ncccc12,3790,99.61 ± 0.24,1500,6.74,41.8,52.5
CC(C)OCc1cc(CN2CCN(c3cccc(Cl)c3)CC2)c(O)c2ncccc12,3170,81.6 ± 18,1690,7.59,35.5,53.9
CCOc1ccc(/C=C/c2nc(=O)c3ccccc3o2)cc1,657,97.94 ± 0.17,21.7,13.3,41.5,69.3
CCN(CC)c1ccc(NC(=O)c2cccs2)cc1,2110,91.4 ± 2.7,1650,< 0,3.66,31.7
N=c1n(CCN2CCCCC2)c2ccccc2n1CC(O)c1cccc(Br)c1 (configuration not stated),624,85.2 ± 2.2,4580,< 0,35.2,64
O=C(Nc1cccc(C(F)(F)F)c1)c1cc(Cl)ccc1O,3770,99.77 ± 0.14,9.2,< 0,20.2,51.6
COc1cc(C(=O)ON=C(N)Cc2cccc3ccccc23)cc(OC)c1OC,218,99.01 ± 0.4,836,7.84,57,73.7
O=C(Nc1ccc(Cl)c(Cl)c1)Nc1ccc(Cl)c(Cl)c1,7140,100.5 ± 0.22,196,15.3,29.9,72.5
COc1ccc2c(=O)cc(C(Cl)(Cl)Cl)oc2c1,2900,84.4 ± 9.2,1130,37.9,45,55.2
Cc1ccc(NC(=O)Nc2cccc(Cl)c2)cc1F,6570,98.51 ± 0.27,1620,< 0,2.62,34.3
Nc1ccc(-c2nc3cc(Oc4ccc(Oc5ccc6[nH]c(-c7ccc(N)cc7)nc6c5)cc4)ccc3[nH]2)cc1,253,100.27 ± 0.078,1610,23.6,43.2,60.7
CCOC(=O)c1c(C)n(-c2ccccc2)c2ccc(OC(=O)c3cc(OC)c(OC)c(OC)c3)cc12,1600,96.58 ± 0.65,6360,11.1,16.1,27.7
COc1ccc(/C=C2/SC(Nc3ccc(F)cc3)=NC2=O)c(OC)c1,880,92 ± 2.3,7.69,23.5,31.5,54.2
CC(C)(C)CC(C)(C)NCC(O)COc1ccc(Cl)cc1Cl (configuration not stated),576,99.763 ± 0.02,2050,22.6,40.4,78.1
COc1ccccc1NC1=C(N2CCCCC2)C(=O)c2ccccc2C1=O,35.9,90.3 ± 3.8,4950,38.5,61.8,64.7
CC(Oc1ccc(NC(=O)c2cccs2)cc1)C(=O)c1ccc(Cl)cc1 (configuration not stated),462,98.06 ± 0.7,257,17.7,30.4,47.3
CN(C)CCCNCc1ccc(-c2ccc(F)c(Cl)c2)o1,601,92.8 ± 3.3,1660,12.5,38.8,63.5
COc1ccc2nc(C)cc(Nc3ccc(Cl)cc3)c2c1,477,99.3 ± 1,556,24.7,39.5,56.8
CCCCCn1c(=N)n(CC(O)COc2cccc(C)c2)c2ccccc21 (configuration not stated),1940,99.47 ± 0.32,1770,8.72,13.3,61.9
CCN(CC)c1cc(C)c2cc(NC(=O)c3cccc(OC)c3)ccc2n1,1300,98.73 ± 0.42,1810,25.4,31.7,56.8

Structure (SMILES),EC50 growth inhibition [1] [nM],% growth inhibition [2] [%],EC50 growth inhibition [3] [nM],% inhibition of schizont-to-ring transition ([4]; 1 µM) [%],% inhibition of schizont-to-ring transition ([4]; 3 µM) [%],% inhibition of schizont-to-ring transition ([4]; 10 µM) [%]
COCCN(C(=O)Cc1cccs1)C(C(=O)NCc1ccc(OC)cc1)c1ccc(C(C)C)cc1 (configuration not stated),935,91.5 ± 3.5,2420,10.9,13.7,21.6
CSC1=NC(=Nc2c(C)cccc2C)C2(CCC(C(C)(C)C)CC2)N1c1ccc(Cl)cc1 (configuration not stated),869,99.94 ± 0.22,775,12.4,26.3,49.9
CCOC(=O)c1cnc2ccc(OC)cc2c1NCc1ccccc1,6780,97.7 ± 1.4,1400,42,45.3,59.1
c1ccc2c(NCCc3c[nH]c4ccccc34)c3ccccc3nc2c1,201,100.1 ± 0.54,170,57.4,60.8,71.5
N=c1n(CCN2CCCCC2)c2ccccc2n1CC(=O)c1ccc(Cl)c(Cl)c1,237,99.931 ± 0.065,1820,36.2,57.9,80.4
CCCCCCC(O)(c1ccc(F)cc1)C(CN1CCOCC1)c1ccccc1 (configuration not stated),2160,100.1 ± 0.26,3570,37.5,40.1,40.3
CCOC(=O)c1cnc2ccc(Cl)cc2c1NCCCN(C)C,1020,82.2 ± 2.8,2340,0.181,23.3,54.9
O=C(NCCCN1CCC(N2CCCCC2)CC1)C1=Cc2cc(Br)ccc2OC1,348,88.9 ± 1.1,2690,27,57.9,66.7
Cc1ccc(C2CC(C(F)(F)F)n3nc(C(=O)N4CCN(C(c5ccccc5)c5ccccc5)CC4)cc3N2)cc1 (configuration not stated),2040,99.677 ± 0.058,1660,< 0,< 0,35.3
COc1ccc(C2c3ccc4ccccc4c3Oc3ncn(CCCN(C)C)c(=N)c32)cc1 (configuration not stated),319,100.2 ± 0.12,2650,22.6,63.4,77.4
Cc1ccccc1OCCSc1nc2ccc(NC(=O)c3cccs3)cc2s1,3730,99.844 ± 0.082,1160,10.7,28.6,55.5
COc1ccc(Nc2nc(N/N=C/c3ccc(O)cc3)nc(Nc3ccc([N+](=O)[O-])cc3)n2)cc1,1100,100.2 ± 0.27,2630,20.8,44,63
CCCCC(O)(c1ccc(Cl)cc1)C(CN1CCOCC1)c1ccc(Cl)cc1 (configuration not stated),2010,99.1 ± 0.71,5000,21,18.3,40.5
CN(C)CCCNc1c2ccccc2nc2ccccc12,92.8,100.3 ± 0.38,1480,28.1,37.7,40.7
COc1cccc(NC(=O)Cn2c(C)c(C#N)c3ccccc32)c1,231,94.39 ± 0.68,905,56.8,75.8,77.4
COc1ccc(Nc2cc(C)nc(NCc3ccccc3)n2)cc1,115,98.67 ± 0.18,653,30.2,34.6,60
O=C(Nc1ccc(Cl)cc1C(=O)Nc1ccncc1)c1ccc(Cl)cc1Cl,1280,80.8 ± 4.7,3950,3.75,32.4,62.5
CCCCCCn1c(=N)n(CC(O)COc2cccc(C)c2)c2ccccc21 (configuration not stated),1130,99.65 ± 0.38,2090,7.26,18.9,72.6
COc1cc(CNCCc2ccc(Cl)cc2)cc(OC)c1O,1780,51.4 ± 14,5990,3.17,4.67,38.3
O=C(Cc1ccccc1)NC(c1ccc(Cl)cc1)c1c(O)ccc2ccccc12 (configuration not stated),1880,100.2 ± 0.43,1020,0.685,26.1,67.8
O=C(NCC1Cc2cccc(-c3ccncc3)c2O1)c1csc2c1CCCC2 (configuration not stated),4480,94.12 ± 0.48,845,9.1,14.2,20.6
O=C(Nc1ccc(N2CCN(Cc3ccccc3)CC2)cc1)c1cccs1,1870,91.82 ± 0.81,183,22.9,21.2,39.3
Oc1ccc(Br)cc1CN1CCN(Cc2ccc(Cl)cc2)CC1,1090,91.5 ± 3.5,6610,16.2,45.5,68.8

Structure (SMILES),EC50 growth inhibition [1] [nM],% growth inhibition [2] [%],EC50 growth inhibition [3] [nM],% inhibition of schizont-to-ring transition ([4]; 1 µM) [%],% inhibition of schizont-to-ring transition ([4]; 3 µM) [%],% inhibition of schizont-to-ring transition ([4]; 10 µM) [%]
COc1ccc(-c2nonc2NC(=O)c2cccc(Cl)c2)cc1OC,1170,84.3 ± 0.96,35.3,36.5,56.1,71
COc1ccc(C2Sc3ccccc3N=C3C2=C(O)c2ccccc23)cc1 (configuration not stated),1180,98.68 ± 0.16,963,< 0,1.15,31.1
COc1ccc(-c2nc3cc(Cc4ccc5[nH]c(-c6ccc(OC)cc6)nc5c4)ccc3[nH]2)cc1,185,100 ± 0.58,1470,50.4,65.3,68.3
COc1cc(-c2nc(-c3ccc(Sc4ccccc4)cc3)c(-c3ccccc3)[nH]2)cc(OC)c1O,449,98.59 ± 0.34,1320,< 0,< 0,45.4
COc1ccc(C(O)(CCC(C)C)C(CN2CCOCC2)c2ccc(Cl)cc2)cc1 (configuration not stated),2090,100.9 ± 0.49,4870,8.88,11.2,32.8
Cc1cc(N(C)C)nc(Nc2ccc(NC(=O)Nc3ccccc3)cc2)n1,236,95.4 ± 1.2,1990,41.8,56.5,71.1
CCOC(=O)C1=CN(C)C=C(C(=O)OCC)C1c1cc(Br)c(OCC)c(OC)c1,1040,95.51 ± 0.24,2590,41.2,58.3,58.9
COc1cc2c(cc1OC)C1=NNC(=O)C1=NC(C)(C)C2,1790,80.4 ± 1.2,3260,14.2,25.3,63.4
CCCc1c(C)nc2ccccc2c1O,1010,87.69 ± 0.86,803,8.03,21.8,46.6
O=C(Nc1ccc(N2CCCCC2)c(Cl)c1)c1ccc(Br)o1,812,82.4 ± 6.4,7400,29.7,39.7,53
Oc1ccc(Cl)cc1CNc1nc2ccccc2[nH]1,1420,96.5 ± 1.9,1310,22.5,38.5,58.6
Cc1ccc(Nc2nc(N)c3ccccc3n2)cc1Cl,427,98.03 ± 0.51,1980,23.3,60.8,67.5
COc1ccc(C2NCCc3c2[nH]c2ccccc32)cc1CN1CCN(c2ccc(F)cc2)CC1 (configuration not stated),468,99.96 ± 0.41,4880,26.9,62.9,77.3
CCc1ccc(Nc2cc(C)c3ccc(O)cc3n2)cc1,286,97.8 ± 1.4,3050,58.8,82.3,80.4
O=C(Nc1ccccc1O)c1ccc(Oc2cccc(C(=O)Nc3ccccc3O)c2)cc1,1840,99.35 ± 0.37,1670,0.57,30,46.7
Nc1nc(Nc2cccc(F)c2)nc2ccccc12,1030,100.5 ± 0.22,8210,15.3,31.5,62.7
Cc1ccnc(NC(c2cccc(OCc3ccccc3)c2)c2ccc3cccnc3c2O)c1 (configuration not stated),886,98.51 ± 0.34,786,17.5,41.1,62.9
Cc1ccc(Cl)cc1N1CCN(CCCNC(=O)C2CCN(c3nc4ccccc4[nH]3)CC2)CC1,920,98.63 ± 0.9,3240,37.8,50.8,60.5
CCOc1ccc2nc(C)cc(Nc3ccc(Br)cc3)c2c1,180,99.53 ± 0.2,4410,28,45.8,44.9
FC(F)(F)c1ccc(Nc2nnnc3ccccc23)cc1,1020,83.5 ± 1.2,681,< 0,4.32,52.7
c1ccc(CNc2nc(Nc3ccccc3)nc3ccccc23)cc1,181,99.917 ± 0.022,708,44.8,51.2,66.8
